From US10004701B2, “Methods and compositions for treating infection” (UNIVERSITY OF ROCHESTER, priority 2012, dated 2018) come the findings set out here.

Where a name gives a salt, the structure may show the parent alone. Read-outs that look alike come from different tables or passages of the source.

What all share (assay): AK assay 384-well format, Prestwick library screening
Experiment [1] concerns E. coli. In kind it is cell-based, Escherichia coli. To be noted: 50 μM final drug concentration; for fold induction at 50 µM: Escherichia coli, 3 h.
For experiment [2], the system named is P. aeruginosa. The class given is cell-based, Pseudomonas aeruginosa. The conditions noted are these: 50 μM final drug concentration; for fold induction at 50 µM: Pseudomonas aeruginosa, 3 h.
The test system of experiment [3] is S. aureus strain USA300-0114. In kind it is cell-based, Staphylococcus aureus. To be noted: 50 μM final drug concentration; for fold induction at 50 µM: Staphylococcus aureus, USA300, 3 h.
Experiment [4] concerns A. baumannii strain 98-37-09. The class given is cell-based, Acinetobacter baumannii. To be noted: 50 μM final drug concentration; for fold induction at 50 µM: Acinetobacter baumannii, 983709, 3 h.
Experiment [5] has as its system K. pneumoniae. The class given is cell-based, Klebsiella pneumoniae. To be noted: 50 μM final drug concentration; for fold induction at 50 µM: Klebsiella pneumoniae, 3 h.
Experiment [6] has as its system E. cloacae. In kind it is cell-based, Enterobacter cloacae. The conditions noted are these: 50 μM final drug concentration; for fold induction at 50 µM: Enterobacter cloacae, 3 h.
Experiment [7] deals with E. faecium. The class given is cell-based, Enterococcus faecium. To be noted: 50 μM final drug concentration; for fold induction at 50 µM: Enterococcus faecium, 3 h.
Where [8] appears, read: cutoff for positive-scoring molecules 3-fold increase.
Where [9] appears, read: 384-well format, cutoff for positive-scoring molecules 3-fold increase.

Regarding `C[C@@H]1NC(=O)NC1=O` [Methylhydantoin-5-(L)], the “AK-based Prestwick Library Screening Results, E. coli (fold increase in extracellular AK activity)” value in experiment [1] ([…]) came to 1.4. The “AK-based Prestwick Library Screening Results, P. aeruginosa (fold increase in extracellular AK activity)” value in experiment [2] (setting [8]) stood at 1.1. Further, the “AK-based Prestwick Library Screening Results, S. aureus (fold increase in extracellular AK activity)” value in experiment [3] (setting [8]) was 1.3. Also, the “AK-based Prestwick Library Screening Results, A. baumannii (fold increase in extracellular AK activity)” value in experiment [4] (setting [8]) is 1.0. Moreover, in experiment [5] (setting [8]), the “AK-based Prestwick Library Screening Results, K. pneumoniae (fold increase in extracellular AK activity)” value is 1.0. In addition, the “AK-based Prestwick Library Screening Results, E. cloacae (fold increase in extracellular AK activity)” value in experiment [6] (setting [8]) was 2.0. In experiment [7] (setting [8]), the “AK-based Prestwick Library Screening Results, E. faecium (fold increase in extracellular AK activity)” value is given as 1.1.

As for `C[C@H]1C[C@@H]2[C@H]([C@@H](O)C[C@@]3(C)[C@H]2CC[C@]3(O)C(=O)CO)[C@@]2(C)C=CC(=O)C=C12` [Methylprednisolone, 6-alpha], the “AK-based Prestwick Library Screening Results, E. coli (increase in extracellular AK activity)” value in experiment [1] (setting [9]) worked out at 0.8. Further, the “AK-based Prestwick Library Screening Results, P. aeruginosa (increase in extracellular AK activity)” value in experiment [2] (setting [9]) is given as 0.9. For the same molecule, the “AK-based Prestwick Library Screening Results, S. aureus (increase in extracellular AK activity)” value in experiment [3] (setting [9]) amounted to 0.8. Moreover, in experiment [4] (setting [9]), the “AK-based Prestwick Library Screening Results, A. baumannii (increase in extracellular AK activity)” value was 0.9. Further, the “AK-based Prestwick Library Screening Results, K. pneumoniae (increase in extracellular AK activity)” value in experiment [5] (setting [9]) worked out at 0.7. Further, the “AK-based Prestwick Library Screening Results, E. cloacae (increase in extracellular AK activity)” value in experiment [6] (setting [9]) was 1.3. Further, the “AK-based Prestwick Library Screening Results, E. faecium (increase in extracellular AK activity)” value in experiment [7] (setting [9]) is given as 1.0.

Take `Cc1cc2c(cc1S(N)(=O)=O)S(=O)(=O)CCC2` [Meticrane]: the fold induction at 50 µM in experiment [1] (384-well format, […], read-out: AK-based Prestwick Library Screening Results, E. coli (increase in extracellular AK activity)) was 0.6; in experiment [2] (384-well format, […], read-out: AK-based Prestwick Library Screening Results, P. aeruginosa (increase in extracellular AK activity)) it was 0.6; in experiment [3] (384-well format, […], read-out: AK-based Prestwick Library Screening Results, S. aureus (increase in extracellular AK activity)) it was 0.8; in experiment [4] (384-well format, […], read-out: AK-based Prestwick Library Screening Results, A. baumannii (increase in extracellular AK activity)), 0.8; in experiment [5] (384-well format, […], read-out: AK-based Prestwick Library Screening Results, K. pneumoniae (increase in extracellular AK activity)), 0.5; in experiment [6] (384-well format, […], read-out: AK-based Prestwick Library Screening Results, E. cloacae (increase in extracellular AK activity)), 0.7. Besides, the fold induction at 50 µM in experiment [7] (384-well format, […], read-out: AK-based Prestwick Library Screening Results, E. faecium (increase in extracellular AK activity)) amounted to 0.9.

As for `CN1CCCC(CC2c3ccccc3Sc3ccccc32)C1` (stereo not drawn) [Metixene hydrochloride], the fold induction at 50 µM came to 0.9 in experiment [1] (planktonic E. coli, cutoff for positive-scoring molecules 3-fold increase, read-out: AK-based Prestwick Library Screening Results, E. coli (increase in extracellular AK activity)); 0.8 in experiment [2] (planktonic P. aeruginosa, cutoff for positive-scoring molecules 3-fold increase, read-out: AK-based Prestwick Library Screening Results, P. aeruginosa (increase in extracellular AK activity)); 0.7 in experiment [3] (planktonic S. aureus, cutoff for positive-scoring molecules 3-fold increase, read-out: AK-based Prestwick Library Screening Results, S. aureus (increase in extracellular AK activity)); 1 in experiment [4] (planktonic A. baumannii, cutoff for positive-scoring molecules 3-fold increase, read-out: AK-based Prestwick Library Screening Results, A. baumannii (increase in extracellular AK activity)); 0.8 in experiment [5] (planktonic K. pneumoniae, cutoff for positive-scoring molecules 3-fold increase, read-out: AK-based Prestwick Library Screening Results, K. pneumoniae (increase in extracellular AK activity)); 0.8 in experiment [6] (planktonic E. cloacae, cutoff for positive-scoring molecules 3-fold increase, read-out: AK-based Prestwick Library Screening Results, E. cloacae (increase in extracellular AK activity)). Further, the fold induction at 50 µM in experiment [7] (planktonic E. faecium, cutoff for positive-scoring molecules 3-fold increase, read-out: AK-based Prestwick Library Screening Results, E. faecium (increase in extracellular AK activity)) was 1.

With `CCN(CC)CCNC(=O)c1cc(Cl)c(N)cc1OC` [Metoclopramide monohydrochloride], the fold induction at 50 µM amounted to 1.3 in experiment [1] (planktonic E. coli, 384-well, cutoff for positive-scoring molecules 3-fold increase, read-out: AK-based Prestwick Library Screening Results: E. coli (increase in extracellular AK activity)); 1.1 in experiment [2] (planktonic P. aeruginosa, 384-well, cutoff for positive-scoring molecules 3-fold increase, read-out: AK-based Prestwick Library Screening Results: P. aeruginosa (increase in extracellular AK activity)); 0.9 in experiment [3] (planktonic S. aureus, 384-well, cutoff for positive-scoring molecules 3-fold increase, read-out: AK-based Prestwick Library Screening Results: S. aureus (increase in extracellular AK activity)); 1.2 in experiment [4] (planktonic A. baumannii, 384-well, cutoff for positive-scoring molecules 3-fold increase, read-out: AK-based Prestwick Library Screening Results: A. baumannii (increase in extracellular AK activity)); 0.9 in experiment [5] (planktonic K. pneumoniae, 384-well, cutoff for positive-scoring molecules 3-fold increase, read-out: AK-based Prestwick Library Screening Results: K. pneumoniae (increase in extracellular AK activity)); 1.6 in experiment [6] (planktonic E. cloacae, 384-well, cutoff for positive-scoring molecules 3-fold increase, read-out: AK-based Prestwick Library Screening Results: E. cloacae (increase in extracellular AK activity)). Besides, the fold induction at 50 µM in experiment [7] (planktonic E. faecium, 384-well, cutoff for positive-scoring molecules 3-fold increase, read-out: AK-based Prestwick Library Screening Results: E. faecium (increase in extracellular AK activity)) was determined as 1.2.

Turning to `Cc1ccccc1N1C(=O)c2cc(S(N)(=O)=O)c(Cl)cc2NC1C` (stereo not drawn) [Metolazone], the fold induction at 50 µM in experiment [1] (384-well format, cutoff for positive-scoring molecules 3-fold increase, read-out: AK-based Prestwick Library Screening Results, E. coli (increase in extracellular AK activity)) is 0.8; in experiment [2] (384-well format, cutoff for positive-scoring molecules 3-fold increase, read-out: AK-based Prestwick Library Screening Results, P. aeruginosa (increase in extracellular AK activity)), 0.7; in experiment [3] (384-well format, cutoff for positive-scoring molecules 3-fold increase, read-out: AK-based Prestwick Library Screening Results, S. aureus (increase in extracellular AK activity)), 0.7; in experiment [4] (384-well format, cutoff for positive-scoring molecules 3-fold increase, read-out: AK-based Prestwick Library Screening Results, A. baumannii (increase in extracellular AK activity)) it was 0.8; in experiment [5] (384-well format, cutoff for positive-scoring molecules 3-fold increase, read-out: AK-based Prestwick Library Screening Results, K. pneumoniae (increase in extracellular AK activity)), 0.6; in experiment [6] (384-well format, cutoff for positive-scoring molecules 3-fold increase, read-out: AK-based Prestwick Library Screening Results, E. cloacae (increase in extracellular AK activity)), 1. Besides, the fold induction at 50 µM in experiment [7] (384-well format, cutoff for positive-scoring molecules 3-fold increase, read-out: AK-based Prestwick Library Screening Results, E. faecium (increase in extracellular AK activity)) came to 0.8.
